# Assay results as given in patent US10100083B2, “Leukemia stem cell targeting ligands and methods of use” (The Regents of the University of California, priority 2011, dated 2018).
# Positions of bridges follow the written chain, without caps; N, C: chain ends. No end group written: not given here.
# Legend:
# in vivo = conditions: Balb/c, mouse
# [1] = Balb/c mice, follow-up for up to 10 days
# [2] = tested on: PBMC, parental A549, K562 or other cell lines; test: Flow cytometry binding of biotinylated peptide to PBMC, parental and other cell lines (binding specificity)
# Description: (§1) One peptide, CLL1-L1, with the sequence of […] (SEQ ID NO: 17) was synthesized for further analysis. To determine the binding specificity, cell lines purchased from the American Type Culture Collection (ATCC), such as PC3N (Prostate), HepG2 (Liver), Skov-3 (Ovarian), 5637 (Bladder), HCT-116 (Colon), RPMI8226 (Myeloma), A549 (Lung), K562 (Leukemia), A549 and K562 cells, both expressing CLL1, were incubated with CLL1-L1 conjugated to biotin and probed with streptavidin-phycoerythrin (PE) (excitation 480 nm, emission 578 nm) (FIG. 1D). A bladder cancer-specific ligand, PLZ4, conjugated to biotin was used as the negative control.
# After panning, a total of 36 phage clones were sequenced. After alignment, two consensus sequences were identified: CXLR(S/T)AAVC (SEQ ID NO: 34) and CXLRSSGPC (SEQ ID NO: 24) (Table 1), in which “X” represents several amino acids that can be replaceable. Serine (S) and threonine (T) belong to the same hydrophilic class of amino acids with only one methyl group difference. Of these two major sequences, one common motif exists: “LR(S/T)”. To confirm that these ligands indeed bind to CLL1, A549 cells were transfected with a CCL1-RFP expression vector (FIG. 1B panel a) or RFP (FIG. 1B panel b, the control). Expression of CLL1-RFP or RFP could be visualized by the appearance of red fluorescence. For subsequent in depth characterization, we selected the peptide […] (SEQ ID NO: 17) instead of […] (SEQ ID NO: 23) because aspartic acid (D) is more hydrophilic than proline (P), which makes the peptide more water soluble and easier to synthesize and manipulate. A549 cells expressing CCL1-RFP or RFP alone were incubated with phage displaying the […] (SEQ ID NO: 17) peptide, and probed with anti-M13 monoclonal antibody-FITC conjugate. […] This peptide is named CLL1-L1 and was used for all subsequent experiments. Flow cytometry studies were also performed to determine cell binding. CLL1-L1 was conjugated to biotin through the polyethylene glycol (PEG) linker. Cells were incubated with biotinylated CLL1-L1 and probed with streptavidin-PE. […]
# [3] = tested on: A549 cells expressing RFP; test: Binding of phage displaying the peptide to control A549 cells expressing RFP
# Description: (§2) FIGS. 1A-D illustrate identification of peptides that target CLL1. A. Panning strategy to identify CLL1-targeting peptides. Before each round of panning, the C7C phage peptide display library was subtracted with various cells to remove phage that could bind to those confounding cell types. B. Binding of phage to cells expressing CLL1. A549 cells were transfected with CLL1-RFP (a) or RFP (b, control), incubated with phage expressing the […] (SEQ ID NO: 17)peptide, and probed with anti-M13 phage antibody conjugated with FITC. Binding of phage to A549 cells expressing CLL1-RFP (c), but not to A549 cells expressing RFP (d) was observed. C. Binding of the […] (SEQ ID NO: 17)peptide to CLL1. Biotinylated […] (SEQ ID NO: 17) peptide was synthesized and used to probe PBMC, A549 transfected with vector alone, and A549 cells expressing CLL1. […] Upper panel: cells were probed with streptavidin (SA)-FITC. Lower panels: cells were probed with CLL1-targeting peptide and SA-FITC. D. Binding specificity of the […] (SEQ ID NO: 17)peptide. Cells of various origins were incubated with the biotinylated CLL1-targeting peptide or a bladder cancer-specific peptide, named PLZ4 as a negative control, and probed with SA-PE.
# (§3) After panning, a total of 36 phage clones were sequenced. […] Expression of CLL1-RFP or RFP could be visualized by the appearance of red fluorescence. […]
# CLL1 [4] = test: Binding of phage displaying the peptide to A549 cells expressing CLL1-RFP (anti-M13 antibody-FITC); conditions: anti-M13 monoclonal antibody-FITC
# Description: as §2, §3
# Target sequence in this assay (Q5QGZ9 65-265 limits assumed): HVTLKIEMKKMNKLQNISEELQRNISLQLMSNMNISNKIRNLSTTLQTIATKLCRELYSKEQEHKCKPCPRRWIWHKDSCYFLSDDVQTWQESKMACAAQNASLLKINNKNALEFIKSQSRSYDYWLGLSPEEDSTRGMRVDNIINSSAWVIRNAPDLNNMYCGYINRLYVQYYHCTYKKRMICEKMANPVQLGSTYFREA
# CLL1 [5] = test: Flow cytometry binding of biotinylated peptide to cells expressing CLL1
# Description: as §1
# Target sequence in this assay (Q5QGZ9 44-265 limits assumed): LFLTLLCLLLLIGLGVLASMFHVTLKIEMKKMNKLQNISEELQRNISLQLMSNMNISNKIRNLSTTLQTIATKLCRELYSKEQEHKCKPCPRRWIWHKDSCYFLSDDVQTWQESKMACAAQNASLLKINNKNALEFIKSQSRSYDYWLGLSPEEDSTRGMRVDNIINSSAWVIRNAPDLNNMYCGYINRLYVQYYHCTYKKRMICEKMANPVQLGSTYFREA
# After panning, a total of 36 phage clones were sequenced. After alignment, two consensus sequences were identified: CXLR(S/T)AAVC (SEQ ID NO: 34) and CXLRSSGPC (SEQ ID NO: 24) (Table 1), in which “X” represents several amino acids that can be replaceable. Serine (S) and threonine (T) belong to the same hydrophilic class of amino acids with only one methyl group difference. Of these two major sequences, one common motif exists: “LR(S/T)”. To confirm that these ligands indeed bind to CLL1, A549 cells were transfected with a CCL1-RFP expression vector (FIG. 1B panel a) or RFP (FIG. 1B panel b, the control). Expression of CLL1-RFP or RFP could be visualized by the appearance of red fluorescence. For subsequent in depth characterization, we selected the peptide […] […]
# [6] = streptavidin-PE, flow cytometry (FIG. 1C)
Compound,MTD (in vivo) [mg/kg],Weight changes [1],"Binding to parental A549, K562 or other cell lines ([2]; SA-PE (FIG. 1D))","Binding to A549 control cells [2, 6]","Binding to PBMC [2, 6]",Phage detected on cell surface [3],Phage detected on cell surface (CLL1 [4]),Binding to A549 and K562 cells that expressed recombinant CLL1 (CLL1 [5]; SA-PE (FIG. 1D)),"Binding to A549 cells expressing CLL1 (CLL1 [5]; streptavidin probe, flow cytometry (FIG. 1C))"
"COc1cccc2c1C(=O)c1c(O)c3c(c(O)c1C2=O)C[C@@](O)(C(C)=O)C[C@@H]3O[C@H]1C[C@H](N)[C@H](O)[C@H](C)O1 [free DNR, daunorubicin]",10,no significant weight changes,,,,,,,
"CDLRSAAVC (disulfide 1-9 (inferred)) [CLL1-L1, CLL1-targeting peptide from C7C phage display library, cyclized via the two cysteines]",,,not,No significant binding,No significant binding,not on cells expressing RFP,detected on the surface,bound,significant binding
